Experimental data published in publication PMC7665192, “A natriuretic peptide from Arabidopsis thaliana (AtPNP-A) can modulate catalase 2 activity” (Scientific Reports, 2020).
Positions of bridges follow the written chain, without caps; N, C: chain ends. Residues, ends and D or L forms follow the SMILES beside them. *: point of attachment. Biotin = O=C1N[C@H]2[C@H](CS[C@H]2CCCCC(=O)*)N1

Tests used:
rCAT2 = experiment: Enzymatic activity of rCAT2, Amplex Red catalase assay; format: biochemical, Arabidopsis thaliana; details: 100 nM, Amplex Red catalase assay kit; three independent experiments, P < 0.01
Protocol: Enzymatic activity of CAT isozymes and total CAT activities of protein extracted from WT and atpnp-a or cat2-2 mutant lines, when indicated sprayed with 1 nM pAtPNP-A or pScr 20 min before harvesting, were determined zymographically and spectrophotometrically, as described in[56]. Relative quantification of intensity of bands corresponding to different CAT isoforms was performed with ImageJ version 1.48 (https://imagej.nih.gov/ij/). Enzymatic activity of the rCAT2 in the presence of absence of 100 nM rAtPNP-A, pAtPNP-A or pScr were determined with the use of Amplex Red catalase assay kit (Invitrogen) according to the manufacturer’s instructions.
Figure 3 AtPNP-A directly interacts with CAT2 to modulate its enzymatic activity in vitro. (a) Zymogram depicting changes in the enzymatic activity of CAT isoforms extracted from wild type (WT) or cat2-2 knockout mutant seedlings in response to 1 nM pAtPNP-A or pScr. Densitometric semi-quantification of bands corresponding to CAT2, normalized to the loading control (dark-coloured band on zymogram) for WT samples treated with 1 nM pAtPNP-A or pScr (mean ± SD, Student’s t-test, n = 3, P < 0.05). […] (b) Total CAT activity in protein extracted from WT seedlings assayed with Amplex Red catalase assay kit in the presence of 1 nM pAtPNP-A, rAtPNP-A, or pScr. […] (c) Enzymatic activity of rCAT2 in the presence of 100 nM pAtPNP-A, rAtPNP-A, or pScr.

[1] = test system: receptor perceiving AtPNP-A; details: cited from earlier work
Description: Similarly, identification of novel receptors targeted by an increasing number of peptidic plant hormones discovered in the last few decades[8],[9] is anticipated. One of those, the plant natriuretic peptides (PNPs), are a group of systemically mobile signals[10] that have a role in the maintenance of salt and water balance[11],[12]. An A. thaliana PNP, termed AtPNP-A (At2g18660; Q9ZV52), has been implicated in several physiological processes ranging from the regulation of stomatal aperture, osmoticum-dependent volume changes[13],[14] and modulation of developmental stage- and tissue-specif ...

CAT2 = experiment: Bimolecular fluorescence complementation (BiFC); format: cell-based, Arabidopsis thaliana; details: chloroplasts of tobacco leaf protoplasts; NeYFP/CeYFP fusions; mean ± SEM, n = 30, P < 0.0001
Description: The full-length A. thaliana AtPNP-A (At2g18660) coding region entry plasmid pENTRYAtPNP-A[46] and pCR8/GW-TOPOCAT2 were recombined separately with both pSITE-nEYFP-C1 [GenBank Accession Number GU734651] and pSITE-cEYFP-C1 [GenBank Accession Number GU734652] to create pNeYFP-AtPNP-A, pCeYFP-AtPNP-A, pNeYFP-CAT2 and pCeYFP-CAT2, respectively. Each plasmid has either the N-terminal (NeYFP) or C-terminal (CeYFP) fragment of eYFP followed by either AtPNP-A or CAT2 coding region driven by the 35S plant expression promoter. After sequence was confirmed each plasmid was transformed separately into Agrobacterium tumefaciens strain GV3101 (pMP90). Tobacco leaves were infiltrated as previously described in[50]. Briefly, A. tumefaciens strains grown in 2YT medium were harvested by centrifugation and resuspended in infiltration medium (10 mM MES pH 5.6, 10 mM MgCl2, 150 µM acetosyringone) to a final OD600 of 0.2. Equal volumes of infiltration media containing relevant BiFC strains were mixed and infiltrated into the underside of tobacco leaves using a needleless syringe. Leaves were harvested after 3 days to isolate protoplasts following[51] and then immediately imaged.
BiFC images were captured at the La Trobe University LIMS BioImaging Facility using a LSM 510 confocal laser scanning microscope (Zeiss), with a × 40/1.2 water immersion objective. The natural red autofluorescence of chlorophyll was used as a marker for chloroplasts. Excitation/emission wavelengths were 488/505–530 nm for YFP and 561/650 nm long pass for red fluorescence. At least three images containing one or more protoplasts were taken for each of the plasmid construct combinations. Each image captured three separate filter scans, including YFP, red fluorescence and bright field. Post-processing of images was performed with ImageJ version 1.48 software (https://imagej.nih.gov/ij/). For each image the contrast for each panel was set at automatic contrast. A merged image was generated for reference with a 10 µm scale bar. The red fluorescence only panel was used to encircle ten chloroplasts as region of interest (ROI), then the YFP fluorescence (BiFC) calculated for each ROI was divided by the red fluorescence calculated for the same ROI. All BiFC/red fluorescence points were plotted using GraphPadPrism7 (GraphPadSoftware). Mean and standard error were calculated for each BiFC combination. All statistical analyses were performed using GraphPadPrism7.
Figure 4 AtPNP-A interacts with CAT2 in vivo. […] Exemplar merged images of protoplasts isolated from a leaf infiltrated with different combinations of N- or C-terminally tagged CAT2 and AtPNP-A are shown. (g) BiFC/Red fluorescence chloroplast analysis with mean ± SEM in pink.

stomata = details: cited from earlier work
Description: A PNP_CAT interaction in plant responses to infecting pathogens is not surprising. CATs commonly function to down-regulate ROS during ABA-induced stomatal closure, and ABA-induced stomatal closure can be inhibited by removal of H2O2 via CAT2[73],[74]. […] Therefore, it is tempting to speculate that AtPNP-A modulates the effect of ABA on stomatal aperture through the interaction w ...

Molecule	In vitro enzymatic activity of rCAT2 (rCAT2)	Generation of cGMP by receptor upon AtPNP-A binding [1]	BiFC / Red fluorescence signal, interaction with CAT2 (CAT2)	Effect on ABA-induced stomatal closure (stomata)
CC(C)C[C@@H]1NC(=O)[C@H](CC(N)=O)NC(=O)[C@H](CC(N)=O)NC(=O)[C@H](CCCCN)NC(=O)[C@H](C(C)C)NC(=O)CNC(=O)[C@H](C(C)C)NC(=O)[C@H](C(C)C)NC(=O)[C@H](CC(C)C)NC(=O)[C@H]([C@@H](C)O)NC(=O)[C@H](CCC(=O)O)NC(=O)[C@H](CCCNC(=N)N)NC(=O)[C@H](CCC(N)=O)NC(=O)[C@H]([C@@H](C)O)NC(=O)CNC(=O)[C@H](Cc2ccc(O)cc2)NC(=O)[C@@H](NC(=O)[C@H](C)NC(=O)[C@H](CO)NC(=O)[C@H](CCCNC(=N)N)NC(=O)[C@@H](NC(=O)[C@H](Cc2ccc(O)cc2)NC(=O)[C@@H]2CCCN2)[C@@H](C)O)CSSC[C@@H](C(=O)NCC(=O)N[C@@H](CCCNC(=N)N)C(=O)N[C@@H](CCCNC(=N)N)C(=O)N[C@@H](Cc2ccc(O)cc2)C(=O)N[C@@H](CCCNC(=N)N)C(=O)N[C@H](C(=O)N[C@@H](CCCNC(=N)N)C(=O)N[C@@H](CCCCNC(=O)CCCC[C@@H]2SC[C@@H]3NC(=O)N[C@@H]32)C(=O)O)C(C)C)NC(=O)[C@H](C)NC(=O)[C@H](CCCNC(=N)N)NC(=O)CNC(=O)[C@H](CC(N)=O)NC(=O)[C@H](CCC(N)=O)NC(=O)[C@H](Cc2c[nH]c3ccccc23)NC1=O [pAtPNP-A] (H-PYTRSACYGTQRETLVVGVKNNLWQNGRACGRRYRVRK(Biotin)-OH; disulfide 7-30; N-terminus and C-terminus assumed)	significantly enhanced	–	–	–
AtPNP-A: An A. thaliana PNP, termed AtPNP-A (At2g18660; Q9ZV52)	–	catalyzes generation of cGMP upon binding of AtPNP-A	interaction of the proteins in chloroplasts of protoplasts	significantly delay and reduce the extent of ABA-induced stomatal closure
